From US10654802B2, “Indoline derivatives and method for using and producing the same” (ARIZONA BOARD OF REGENTS ON BEHALF OF THE UNIVERSITY OF …, priority 2016, dated 2020)

Target: T1, Nox4 (Homo sapiens, UniProt Q9NPH5)
T1 construct: expressed in transfected cells
T1 sequence (Q9NPH5 1-578): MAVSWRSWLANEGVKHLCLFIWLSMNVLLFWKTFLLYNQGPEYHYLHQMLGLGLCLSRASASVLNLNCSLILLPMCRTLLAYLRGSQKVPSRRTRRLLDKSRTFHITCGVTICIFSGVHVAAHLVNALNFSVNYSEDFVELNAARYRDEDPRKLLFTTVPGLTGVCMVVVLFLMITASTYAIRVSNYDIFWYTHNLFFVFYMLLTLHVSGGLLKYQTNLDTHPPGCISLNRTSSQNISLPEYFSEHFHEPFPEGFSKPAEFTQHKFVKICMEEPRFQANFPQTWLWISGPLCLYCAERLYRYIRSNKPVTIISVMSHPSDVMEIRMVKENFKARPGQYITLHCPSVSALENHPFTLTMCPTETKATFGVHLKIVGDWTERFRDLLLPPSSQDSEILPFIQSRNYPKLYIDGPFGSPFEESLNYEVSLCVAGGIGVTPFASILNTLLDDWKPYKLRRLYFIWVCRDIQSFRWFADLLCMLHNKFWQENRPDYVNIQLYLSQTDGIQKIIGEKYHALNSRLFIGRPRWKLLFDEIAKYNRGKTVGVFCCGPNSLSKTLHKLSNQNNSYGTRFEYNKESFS
T1 sequence (P13498 1-195 partner): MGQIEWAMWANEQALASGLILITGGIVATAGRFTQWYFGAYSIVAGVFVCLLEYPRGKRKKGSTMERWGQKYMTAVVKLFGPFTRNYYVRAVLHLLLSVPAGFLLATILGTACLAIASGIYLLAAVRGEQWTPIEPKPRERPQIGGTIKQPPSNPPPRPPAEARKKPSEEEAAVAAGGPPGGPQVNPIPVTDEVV
Test: Inhibition of Nox4-dependent H2O2 production in HEK/Nox4 cells, Amplex Red assay
Format: cell-based
Details: for remaining activity at 1 µM: 1 μM final concentration; for remaining activity at 1 µM / remaining activity at 5 µM / remaining activity at 10 µM: 1 h, HEK/Nox4 cells, DMSO vehicle = 1.000, n = 3-10, read-out: H2O2 production relative to vehicle control, Mean; for remaining activity at 5 µM: 5 μM final concentration; for remaining activity at 10 µM: 10 μM final concentration
Procedure: A high-throughput screening (HTS) assay was established for Nox4 inhibition, utilizing HEK293 cells that stably over-express Nox4 (HEK/Nox4 cells), which generate high levels of H2O2(Cheng G et al, Gene: 2001, p. 131-140). Over 30,000 compounds have been screened and medicinal chemistry efforts have led to the synthesis of numerous analogs and the identification of a chemically distinct series of selective Nox4 inhibitors. […] IC-50 was evaluated for UANox048 (FIG. 1B).
HEK cells stably transfected to overexpress Nox4 were treated with varying concentrations of test compounds, DPI (all-Nox inhibitor positive control), or DMSO (vehicle control) and incubated for 1 h (FIG. 1). (FIG. 1A) H2O2 presence was evaluated by Amplex Red assay. […] Values represent means±SEM; n=4. P values were calculated by student's two-tailed t test. *p<0.05, **p<0.01, *** p<0.001.

SMILES | remaining activity at 1 µM [%] | remaining activity at 5 µM [%] | remaining activity at 10 µM [%] | H2O2 generation by HEK/Nox4 cells (varying concentrations, Amplex Red, FIG. 1A)
CCN(CC)S(=O)(=O)NCCN1CCc2ccccc21 [UANOX001, N—(N,N-diethylaminosulfonyl)-2-(indolin-1-yl)ethan-1-amine] | 99.5 | 106 | 103 | 
CCN(CC)C(=O)NCCN1CCc2ccccc21 [UANOX002, 1,1-diethyl-3-(2-(indolin-1-yl)ethyl)urea] | 98.6 | 106 | 101 | 
CCN(CC)C(=O)NCC(C)N1CCc2ccccc21 (stereo not shown) [UANOX006, 1,1-diethyl-3-(2-(indolin-1-yl)propyl)urea] | 82.2 | 82.5 | 74.1 | 
CN1CCN(C(=O)NCCN2CCc3ccccc32)CC1 [UANOX011, N-(2-(indolin-1-yl)ethyl)-4-methylpiperazine-1-carboxamide] | 98 | 97.9 | 95.6 | 
c1ccc2c(c1)CCN2CCN1CCCCC1 [UANOX018, 1-(2-(piperidin-1-yl)ethyl)indoline] | 110 | 103 | 100 | 
CC(CNC(=O)N1CCCC1)N1CCc2ccccc21 (stereo not shown) [UANOX020, N-(2-(indolin-1-yl)propyl)pyrrolidine-1-carboxamide] | 73.7 | 87 | 86.6 | 
O=C(NCCN1CCc2ccccc21)N1CCCC1 [UANOX021, N-(2-(indolin-1-yl)ethyl)pyrrolidine-1-carboxamide] | 74.2 | 87.6 | 79.1 | 
O=C(CNC1CCCCCC1)N1CCc2ccccc21 [UANOX023, 2-(cycloheptylamino)-1-(indolin-1-yl)ethan-1-one] | 98.4 | 108 | 100 | 
CC(CNC(=O)c1csc(-c2ccncc2)n1)N1CCc2ccccc21 (stereo not shown) [UANOX033, N-(2-(indolin-1-yl)propyl)-2-(pyridin-4-yl)thiazole-4-carboxamide] | 100 | 91.2 | 86.7 | 
COc1ccc(S(=O)(=O)NCC(C)N2CCc3ccccc32)cc1 (stereo not shown) [UANOX034, N-(2-(indolin-1-yl)propyl)-4-methoxybenzenesulfonamide] | 95.9 | 80.3 | 70.6 | dose-dependent decrease
CCN(CC)S(=O)(=O)NCC(C)N1CCc2cc(-c3cccc(OC)c3)ccc21 (stereo not shown) [UANOX036, N-(2-(5-(3-methoxyphenyl)indolin-1-yl)propyl)-N,N-diethyl-1-sulfonamide] | 102 | 83.2 | 74.7 | 
CCN(CC)S(=O)(=O)Nc1ccc(N2CCc3ccccc32)cc1 [UANOX038, N—(N,N-diethylaminosulfonyl)-4-(indolin-1-yl)aniline] | 92.5 | 80 | 63.5 | 
CC(CNS(=O)(=O)c1ccc(OC(F)(F)F)cc1)N1CCc2ccccc21 (stereo not shown) [UANOX049, N-(2-(indolin-1-yl)propyl)-4-(trifluoromethoxy)benzenesulfonamide] | 87.1 | 78.4 | 71.4 | 
COc1ccc(-c2nc(C(=O)NCC(C)N3CCc4ccccc43)cs2)cc1 (stereo not shown) [UANOX054, N-(2-(indolin-1-yl)propyl)-2-(4-(methoxy)phenyl)thiazole-4-carboxamide] | 90.2 | 87.6 | 82.4 | 

Further lines, results first:

remaining activity at 1 µM [%] | remaining activity at 5 µM [%] | remaining activity at 10 µM [%] | H2O2 generation by HEK/Nox4 cells (varying concentrations, Amplex Red, FIG. 1A) | SMILES
101 | 103 | 103 |  | CN(C)S(=O)(=O)NCCN1CCc2ccccc21 [UANOX003, N—(N,N-dimethylaminosulfonyl)-2-(indolin-1-yl)ethan-1-amine]
99.4 | 101 | 88.2 |  | O=S(=O)(NCCN1CCc2ccccc21)N1CCCC1 [UANOX004, N-(2-(indolin-1-yl)ethyl)pyrrolidine-1-sulfonamide]
103 | 91.6 | 90.8 |  | CC(CNS(=O)(=O)N(C)C)N1CCc2ccccc21 (stereo not shown) [UANOX007, N—(N,N-dimethylaminosulfonyl)-2-(indolin-1-yl)propane-1-amine]
98.4 | 77.9 | 67.8 |  | CC(CNS(=O)(=O)N1CCCC1)N1CCc2ccccc21 (stereo not shown) [UANOX008, N-(2-(indolin-1-yl)propyl)pyrrolidine-1-sulfonamide]
96 | 95 | 85.7 |  | O=S(=O)(NCCN1CCc2ccccc21)N1CCOCC1 [UANOX012, N-(2-(indolin-1-yl)ethyl)morpholine-4-sulfonamide]
101 | 92.1 | 88.1 |  | O=S(=O)(NCCN1CCc2ccccc21)N1CCCCC1 [UANOX013, N-(2-(indolin-1-yl)ethyl)piperidine-1-sulfonamide]
91.5 | 81.4 | 74.1 |  | CC(CNC(=O)N1CCN(C)CC1)N1CCc2ccccc21 (stereo not shown) [UANOX019, N-(2-(indolin-1-yl)propyl)-4-methylpiperazine-1-carboxamide]
111 | 107 | 110 |  | O=C(CCN1CCN(c2ncccn2)CC1)N1CCc2ccccc21 [UANOX022, 1-(indolin-1-yl)-3-(4-(pyrimidin-2-yl)piperazin-1-yl)propan-1-one]
107 | 113 | 112 |  | CCN(CC)S(=O)(=O)N1CCN(CC(=O)N2CCc3ccccc32)CC1 [UANOX025, N,N-diethyl-4-(2-(indolin-1-yl)-2-oxoethyl)piperazine-1-sulfonamide]
90.6 | 106 | 101 |  | O=C(CN1CCN(S(=O)(=O)N2CCOCC2)CC1)N1CCc2ccccc21 [UANOX026, 1-(indolin-1-yl)-2-(4-(morpholinosulfonyl)piperazin-1-yl)ethan-1-one]
113 | 113 | 112 |  | O=C(CN1CCN(S(=O)(=O)N2CCCCC2)CC1)N1CCc2ccccc21 [UANOX027, 1-(indolin-1-yl)-2-(4-(piperidin-1-ylsulfonyl)piperazin-1-yl)ethan-1-one]
108 | 112 | 111 |  | CN(C)S(=O)(=O)N1CCN(CC(=O)N2CCc3ccccc32)CC1 [UANOX028, 4-(2-(indolin-1-yl)-2-oxoethyl)-N,N-dimethylpiperazine-1-sulfonamide]
112 | 112 | 110 |  | CCN(CC)S(=O)(=O)N1CCN(CCC(=O)N2CCc3ccccc32)CC1 [UANOX029, N,N-diethyl-4-(3-(indolin-1-yl)-3-oxopropyl)piperazine-1-sulfonamide]
108 | 108 | 104 |  | O=C(CCN1CCN(S(=O)(=O)N2CCOCC2)CC1)N1CCc2ccccc21 [UANOX030]
111 | 111 | 99.7 |  | O=C(CCN1CCN(S(=O)(=O)N2CCCCC2)CC1)N1CCc2ccccc21 [UANOX031, 1-(indolin-1-yl)-3-(4-(piperidin-1-ylsulfonyl)piperazin-1-yl)propan-1-one]
112 | 109 | 105 |  | CN(C)S(=O)(=O)N1CCN(CCC(=O)N2CCc3ccccc32)CC1 [UANOX032, 4-(3-(indolin-1-yl)-3-oxopropyl)-N,N-dimethylpiperazine-1-sulfonamide]
97.2 | 79.3 | 77.3 |  | CC(CNS(=O)(=O)N1CCN(C)CC1)N1CCc2ccccc21 (stereo not shown) [UANOX037]
